The record followed here is US20040209318A1, “Reagents and methods for the detection and quantification of vancomycin in bilogical fluids” (priority 1995, published 2004).

Where only a bound is given, the exact number is not on record here.

The test addresses anti-vancomycin Fab fragment. Briefly: BIAcore solution competition, equilibrium dissociation constant. In kind it is binding, mouse. Conditions: in solution, 20 nM Fab fragment; read-out: Equilibrium Dissociation Constant (KD). The method, then:
Biosensor surfaces were regenerated after each injection with successive 1 minute pulses of 6 M, 6M, and 1.5 M guanidine hydrochloride. Initial rates of binding of anti-vancomycin Fab fragment to the biosensor surface were measured over a 15 second window beginning 20 seconds postinjection. Data was evaluated by non-linear regression analysis using the solution affinity model built into BIAevaluation 3.0 software (BIAcore, Inc).
The binding affinities of several vancomycin analogs and tracers for anti-vancomycin Fab fragment were determined from solution competition experiments carried out on a BIAcore 2000. Initially, known concentrations of anti-vancomycin Fab fragment (0-22 nM) were injected over the aminoalkyl vancomycin biosensor surface. The initial rate of binding for each anti-vancomycin Fab fragment concentration was obtained by averaging the observed binding rate over a […] window beginning 20 seconds post injection. Data from the first 20 seconds of each sensorgram were omitted due to sample dispersion effects at the start of injections. A plot of initial binding rate versus concentration of anti-vancomycin Fab fragment was fit using a 4-parameter logistic (general model in BIAevaluation 3.0) providing a standard curve. […] A fixed concentration of anti-vancomycin Fab fragment (20 nM) was then mixed with twelve concentrations of each vancomycin analog or tracer and allowed to reach equilibrium. The equilibrium mixtures were individually injected over the aminoalkyl vancomycin biosensor surface, and the concentration of free anti-vancomycin Fab fragment remaining was quantitated by determination of the initial rate of binding to the biosensor surface as described above. A plot of free anti-vancomycin Fab fragment versus total concentration of added analog or tracer provides a competition curve. […] The data points represent the experimentally determined concentrations of free anti-vancomycin Fab fragment in equilibrium solutions at a given concentration of soluble analog or tracer. The curves represent the best nonlinear fit of the data using equation 1 (solution affinity model in BIAevaluation software) below: [formula]
where Fabτ is the concentration of free anti-vancomycin Fab fragment in equilibrium solutions, Fabτ is the total concentration of anti-vancomycin Fab fragment in solution (20 nM), A is the total concentration of added vancomycin analog or tracer, and KD is the equilibrium dissociation constant for the binding of the vancomycin analog or tracer to anti-vancomycin Fab fragment in solution.

aglucovancomycin [compound 6]: the Kd (in general, the equilibrium constant for the complex coming apart) came out at 42000 nM.

Regarding “Crystalline degradation product (CDP) [compound 10]”, the Kd amounted to 488 ± 34 nM.

As for Ring-2 dechloro CDP [compound 12], the dissociation constant (Kd) was 6000 nM.

As for `CC(C)CC(C(=O)NC1C(=O)NC(CC(N)=O)C(=O)NC2C(=O)NC3C(=O)NC(C(=O)NC(C(=O)O)c4cc(O)cc(O)c4-c4cc3ccc4O)C(O)c3ccc(c(Cl)c3)Oc3cc2cc(c3OC2OC(CO)C(O)C(O)C2OC2CC(C)(N)C(O)C(C)O2)Oc2ccc(cc2Cl)C1O)N(C)C(=O)CCCCC1SCC2NC(=O)NC21` (centres unmarked) [compound 16], the Kd was ≤ 0.2 nM.

As to `CN[C@H](CC(C)C)C(=O)N[C@H]1C(=O)N[C@@H](CC(N)=O)C(=O)N[C@H]2C(=O)N[C@H]3C(=O)N[C@H](C(=O)N[C@H](C(=O)O)c4cc(O)cc(O)c4-c4cc3ccc4O)[C@H](O)c3ccc(c(Cl)c3)Oc3cc2cc(c3O[C@@H]2O[C@H](CO)[C@@H](O)[C@H](O)[C@H]2O)Oc2ccc(cc2Cl)[C@H]1O` [compound 5, Desvancosaminylvancomycin], the Kd stood at 587 ± 27 nM.
